# Assay results as given in patent US20260083769A1, “2-Aminopropane-1,3-Diol-Capped Cationic Peptoids for Nucleic Acid Delivery” (NUTCRACKER THERAPEUTICS, INC., priority 2022, published 2026).
# Read-outs that look alike come from different tables or passages of the source. Where a SMILES comes first, the peptide text is derived from it. [ ]: non-standard residue; d: D form. Gly(Nα-oleyl) = CCCCCCCC/C=C\CCCCCCCCNCC(=O)O; N(2-ethylhexyl)Gly = CCCCC(CC)CNCC(=O)O; Gly(N-dodecyl) = CCCCCCCCCCCCNCC(=O)O; N(CH(CH2OH)2)Gly = O=C(O)CNC(CO)CO; N(octyl)Gly = CCCCCCCCNCC(=O)O; NDecylGly = CCCCCCCCCCNCC(=O)O
# What was measured:
# [1] = Apparent particle pKa, TNS fluorescence assay; type: physicochemical; conditions: Table 5; apparent particle pKa of delivery vehicle
# Method: The apparent particle pKa was assessed by a TNS fluorescence assay. Briefly, particles were diluted to 130 uM total lipid in TNS buffer ranging in pH 3-11 for 10 minutes with […] of TNS probe. The fluorescence was measured at room temperature in a plate reader ex 320/em 445. Fluorescence intensity was normalized to the minimal and maximal values and the pKa was determined by a 3 parameter fit to determine the half maximum of the curve.
# [2] = RBC hemolysis as metric for fusogenicity; type: cell-based; conditions: sheep red blood cells (RBCs), 5% v/v, Table 5, delivery vehicle, 37° C. 45 min
# Method: RBC hemolysis was used as a metric for fusogenicity of LNPs at low pH. […] Particles were diluted to […] total lipid in well with 5% RBC solution and incubated at 37° C. for 45 min. Supernatant was collected and absorbance read on a microplate reader at 425 nm. Fusion was normalized to a fully lysed sample with 2% Triton™ and a buffer-only control. % hemolysis=100*[(ABS T-background)−(ABS sample-background)/(ABS T-background)].
# [3] = Percent encapsulated mRNA, RiboGreen assay; type: physicochemical; conditions: Table 5; delivery vehicle comprising the peptoid, Formulation D22, fLuc mRNA
# Method: Percent encapsulation. The percentage of mRNA encapsulated within the delivery vehicle complexes containing Fluc mRNA was determined using a modified RiboGreen® assay. In general, formulated mRNA samples were diluted to 500 ng/ml in Tris-EDTA buffer with or without Triton-X™. RiboGreen® (Invitrogen) was added at a 200-fold dilution, and the plate was incubated for 5 minutes. Fluorescence was measured at Ex. […]/Em. 520 nm and encapsulated mRNA was calculated by taking the ratio of fluorescence for non-lysed particles versus lysed particles.
# The mRNA concentration and the percentage of encapsulated mRNA were determined using a fluorescence-based Quant-iT™ RiboGreen® RNA Reagent Kit using a literature procedure. To determine the mRNA concentration, delivery vehicles were incubated with 2% Triton™ X-100 for 10 min to release entrapped mRNA, followed by addition of RiboGreen® RNA reagent. The fluorescence intensity of mRNA-RiboGreen® reagent complex (excitation at 485 nm and emission at 530 nm) was detected using a microplate reader. The ratio of fluorescence without and with Triton™ X-100 were used to calculate the percentage of encapsulated mRNA.
# [4] = Zeta potential of delivery vehicles; type: physicochemical; conditions: Table 5; delivery vehicle, pH 7 buffer; in mV (unit assumed)
# Method: (§1) In one particular instance, the size and polydispersity (PDI) of delivery vehicles was measured by dynamic light scattering in PBS using a DynaPro® plate reader III. The zeta potential of delivery vehicles was determined using Nano-ZS™ particle analyzer. Zeta sample was diluted to 30 uM total lipid in a weakly buffered solution of 10 mM HEPES, 10 mM MES, 10 mM ammonium acetate pH 7. Measurements were collected in duplicate for over 30 run with the voltage manually set to […]
# [5] = Particle size and polydispersity (PDI) of delivery vehicles by dynamic light scattering; type: physicochemical; conditions: Table 5; delivery vehicle comprising the peptoid, Formulation D22, fLuc mRNA
# Method: The resulting delivery vehicle complexes were evaluated by dynamic light scattering (DLS) to determine the volume average particle size/diameter (nm) and the size polydispersity index (PDI) within the delivery vehicle complex.
# Particle size. Particle sizes and size distributions were measured using a Wyatt DynaPro® Plate Reader III. In general, formulated samples were diluted to 2 ng/μL in 100 µL PBS. Data is reported as the hydrodynamic diameter (in nm) of the cumulant fit of the correlation function, and the polydispersity of that measurement.
# as §1
# [6] = pH 5, read-out: Hemolysis at pH 5
# [7] = pH 7, read-out: Hemolysis at pH 7
Structure (SMILES),pKa (TNS) [1],"hemolysis at 45 min, 150 mM total lipid [2, 6] [%]","hemolysis at 45 min, 150 mM total lipid [2, 7] [%]",% Encapsulation [3] [%],Zeta Potential [4],PDI [5],Particle Size (nm) [5] [nm]
CCCCCCCC/C=C\CCCCCCCCN(CC(=O)N(CCCCCCCCCC)CC(=O)N(CCCCCCCC/C=C\CCCCCCCC)CC(=O)N(CCCCCCCCCC)CC(N)=O)C(=O)CNC(CO)CO [Compound 6],6.373,21.5,60.6,85.9,−0.785,0.39,71.3
CCCCCCCCN(CC(N)=O)C(=O)CN(CCCCCC)C(=O)CN(CCCCCC)C(=O)CN(CCCCCC)C(=O)CN(CCCCCC)C(=O)CN(CCCCCC)C(=O)CN(CCCCCC)C(=O)CN(CCCCCCCC)C(=O)CNC(CO)CO [Compound 10],6.052,1.1,0,97.0,−2.71,0.3,122.5
CCCCCCCC/C=C\CCCCCCCCN(CC(N)=O)C(=O)CN(CCCCCCCC)C(=O)CN(CCCCCCCC/C=C\CCCCCCCC)C(=O)CNC(CO)CO [Compound 20] (H-[N(CH(CH2OH)2)Gly][Gly(Nα-oleyl)][N(octyl)Gly][Gly(Nα-oleyl)]-NH2),5.773,16.7,33.3,70.1,3.41,0.18,65.4
CCCCCCCCCCN(CC(=O)N(CCCCCCCCCC)CC(=O)N(CC(=O)N(CCCCCCCCCC)CC(=O)N(CCCCCCCCCC)CC(=O)N(CC(N)=O)CC(CC)CCCC)CC(CC)CCCC)C(=O)CNC(CO)CO (stereo not drawn) [Compound 29] (H-[N(CH(CH2OH)2)Gly][NDecylGly][NDecylGly][N(2-ethylhexyl)Gly][NDecylGly][NDecylGly][N(2-ethylhexyl)Gly]-NH2),6.044,4.8,1.3,81.9,−7.04,0.094,92.7
CCCCCCN(CC(N)=O)C(=O)CN(CCCCCC)C(=O)CN(CCCCCC)C(=O)CN(CCCCCC)C(=O)CN(CCCCCC)C(=O)CN(CCCCCC)C(=O)CN(CCCCCC)C(=O)CN(CCCCCC)C(=O)CNC(CO)CO [Compound 14],6.825,9.1,0.2,57.3,−3.14,Multimodal,2228.3
CCCCCCCCCCCCN(CC(N)=O)C(=O)CN(CCCCCCCCCCCC)C(=O)CN(CCCCCCCCCCCC)C(=O)CN(CCCCCCCCCCCC)C(=O)CN(CCCCCCCCCCCC)C(=O)CN(CCCCCCCCCCCC)C(=O)CNC(CO)CO [Compound 16] (H-[N(CH(CH2OH)2)Gly][Gly(N-dodecyl)][Gly(N-dodecyl)][Gly(N-dodecyl)][Gly(N-dodecyl)][Gly(N-dodecyl)][Gly(N-dodecyl)]-NH2),5.554,4.1,2.2,30.6,−3.58,0.24,93.1
CCCCCCCCCCCCN(CC(=O)N(CCCCCCCCCC)CC(N)=O)C(=O)CN(CCCCCCCCCC)C(=O)CN(CCCCCCCCCC)C(=O)CN(CCCCCCCCCCCC)C(=O)CN(CCCCCCCCCC)C(=O)CNC(CO)CO [Compound 27] (H-[N(CH(CH2OH)2)Gly][NDecylGly][Gly(N-dodecyl)][NDecylGly][NDecylGly][Gly(N-dodecyl)][NDecylGly]-NH2),5.48,12.4,9.1,87.9,1.84,0.214,107.6
CCCCCCCCCCCCN(CC(=O)N(CCCCCCCCCC)CC(=O)N(CCCCCCCCCCCC)CC(=O)N(CCCCCCCCCC)CC(N)=O)C(=O)CNC(CO)CO [Compound 22],5.888,58.9,81.5,83.3,4.24,0.179,51.5
CCCCCCCC/C=C\CCCCCCCCN(CC(N)=O)C(=O)CN(CCCCCCCCCC)C(=O)CN(CCCCCCCC/C=C\CCCCCCCC)C(=O)CNC(CO)CO [Compound 7] (H-[N(CH(CH2OH)2)Gly][Gly(Nα-oleyl)][NDecylGly][Gly(Nα-oleyl)]-NH2),6.283,6.1,23.8,86.3,−2.31,0.13,62.3
CCCCC(CC)CN(CC(N)=O)C(=O)CN(CC(CC)CCCC)C(=O)CN(CC(CC)CCCC)C(=O)CN(CC(CC)CCCC)C(=O)CNC(CO)CO (stereo not drawn) [Compound 24],6.43,100,99.9,97.6,−1.59,0.12,66.9
CCCCCCCCCCCCN(CC(=O)N(CCCCCC)CC(N)=O)C(=O)CN(CCCCCCCCCCCC)C(=O)CN(CC(CC)CCCC)C(=O)CN(CCCCCC)C(=O)CN(CCCCCCCCCCCC)C(=O)CN(CCCCCCCCCCCC)C(=O)CN(CC(CC)CCCC)C(=O)CNC(CO)CO (stereo not drawn) [Compound 17],5.656,2.1,0.3,50.3,−17.8,0.11,96.7
CCCCCCCC/C=C\CCCCCCCCN(CC(=O)N(CCCCCC)CC(=O)N(CCCCCC)CC(=O)N(CCCCCC)CC(=O)N(CCCCCCCC/C=C\CCCCCCCC)CC(=O)N(CCCCCC)CC(=O)N(CCCCCC)CC(=O)N(CCCCCC)CC(N)=O)C(=O)CNC(CO)CO [Compound 9],5.906,1.1,0.1,95.2,−1.6,0.14,94.9
